Values quoted from earlier work in patent publication US20050004010A1, “Cobalamin conjugates useful as imaging agents and as antitumor agents” (Mayo Foundation For Medical Education, priority 1999, published 2005).

Conditions: L isomer versus D isomer

In the case of COc1cccc2c1C(=O)c1c(O)c3c(c(O)c1C2=O)C[C@@](O)(C(C)=O)C[C@@H]3O[C@H]1C[C@H](NC(=O)[C@@H](N)CC(C)C)C(O)[C@H](C)O1 (stereo partly drawn) [N-(L-leucyl) daunorubicin], the “hydrolysis in vivo to regenerate daunorubicin” value is listed as “hydrolyzed in vivo to regenerate daunorubicin”.
